Key:
Format in all cases: cell-based
[1] = tested on: cancer cell lines A549/ATCC and NCI-H460; assay: SRB analysis of single and combination treatment; details: 0.1-50 μM gossypol alone; FIGS. 5 and 6
Procedure: An SRB analysis was performed to examine the effect of gossypol on inhibiting the growth of cancer cell lines. Specifically, according to the doubling time of lung cancer cell lines, for example, A549/ATCC, HOP-62, HOP-92, NCI-H23, NCI-H460 or NCI-H522 cell lines, 5000 to 40000 cells were seeded per well and grown in a 96-well microtiter plate. After 24 hours, the cells were treated with […] of 0, 0.1, 1, 10 or 100 μM gossypol per well, and incubated at 37° C. for 48 hours. Subsequently, […] of 50% cold (4° C.) trichloroacetic acid (TCA) was added to each of the attached cell lines, and […] of 80% TCA was added to each of the suspended cell lines to fix the cells. Following the incubation of the plate at 4° C. for 1 to 3 hours, the TCA solution in the plate was discarded, and then the plate was rinsed with distilled water five times. The plate was dried at room temperature for approximately 12 to 24 hours, and then fixed cells were stained with […] of sulforhodamine B (SRB) at room temperature for 5 minutes. After staining, the plate was washed with 1% glacial acetic acid three times, and dried at room temperature for approximately 12 to 24 hours. The SRB dye was dissolved with 10 mM Trizma base, and an optical density was measured at 515 nm. The effect of gossypol on inhibiting cancer cells was represented as 50% growth inhibition (GI50). […]

A549 cell line = assay: ATP level measurement according to gossypol concentration; details: 0, 0.1 or 1 μM gossypol for 1 hour; FIG. 2
Procedure: Also, to investigate a change of ATP levels according to the concentration of gossypol, an A549 cell line was treated with 0, 0.1 or 1 μM gossypol for 1 hour, followed by measuring ATP levels.

[2] = tested on: non-small cell lung cancer (NSCLC) cell lines (A549, H460, Hop-92, H23); assay: ATP level measurement with ATP assay kit after gossypol treatment; details: 1 μM gossypol for 1 hour; FIG. 1
Procedure: To examine whether energy generation in cancer cells was inhibited by gossypol, which is […], non-small cell lung cancer (NSCLC) cell lines, for example, an A549 cell line, an H460 cell line, an Hop-92 cell line and an H23 cell line, were treated with 1 μM gossypol for 1 hour, followed by measuring ATP levels using an ATP assay kit (Biovision; #K354-100). As a control, normal lung epithelial cells were used.

[3] = tested on: AMP-activated protein kinase (AMPK) phosphorylation in A549 lung cancer cell lines; assay: AMPK phosphorylation by western blotting; details: 1 μM for 0, 8, 16 or 24 hours; 0, 0.1, 0.5 or 1 μM for 24 hours; FIG. 4
Procedure: To examine the anticancer effect according to the treatment time or concentration of gossypol, A549 lung cancer cell lines were treated with 1 μM gossypol for 0, 8, 16 or 24 hours, and then the phosphorylation of an AMP-activated protein kinase (AMPK), which is a critical protein for cancer cell division, was analyzed by western blotting.
Also, after the individual treatment of 0, 0.1, 0.5 or 1 μM gossypol for 24 hours, AMPK phosphorylation was also analyzed by western blotting.

[4] = tested on: lung cancer cell lines (A549/ATCC, HOP-62, HOP-92, NCI-H23, NCI-H460, NCI-H522); assay: SRB analysis of growth inhibition of lung cancer cell lines; details: 48 hours incubation, single treatment, FIG. 3, read-out: GI50 concentration (50% growth inhibition)
Procedure: An SRB analysis was performed to examine the effect of gossypol on inhibiting the growth of cancer cell lines. Specifically, according to the doubling time of lung cancer cell lines, for example, A549/ATCC, HOP-62, HOP-92, NCI-H23, NCI-H460 or NCI-H522 cell lines, 5000 to 40000 cells were seeded per well and grown in a 96-well microtiter plate. After 24 hours, the cells were treated with […] of 0, 0.1, 1, 10 or 100 μM gossypol per well, and incubated at 37° C. for 48 hours. Subsequently, […] of 50% cold (4° C.) trichloroacetic acid (TCA) was added to each of the attached cell lines, and […] of 80% TCA was added to each of the suspended cell lines to fix the cells. Following the incubation of the plate at 4° C. for 1 to 3 hours, the TCA solution in the plate was discarded, and then the plate was rinsed with distilled water five times. The plate was dried at room temperature for approximately 12 to 24 hours, and then fixed cells were stained with […] of sulforhodamine B (SRB) at room temperature for 5 minutes. After staining, the plate was washed with 1% glacial acetic acid three times, and dried at room temperature for approximately 12 to 24 hours. The SRB dye was dissolved with 10 mM Trizma base, and an optical density was measured at 515 nm. The effect of gossypol on inhibiting cancer cells was represented as 50% growth inhibition (GI50).

Cc1cc2c(C(C)C)c(O)c(O)c(C=O)c2c(O)c1-c1c(C)cc2c(C(C)C)c(O)c(O)c(C=O)c2c1O [gossypol]
growth of the cancer cells, single treatment [1]: hardly inhibited
inhibition of the ATP production, concentration dependence (A549 cell line): dependent on the concentration of gossypol
levels of ATP production [2]: inhibited
AMPK phosphorylation [3]: increased depending on the treatment time and concentration
GI50 [4]: 5 µM
